Test results published in patent US20250129078A1, “ERBB2 INHIBITORS” (Cogent Biosciences, Inc., priority 2023, published 2025).
Read-outs that look alike come from different tables or passages of the source.

Columns and labels:
ErbB2 V777L = ErbB2 V777L (Homo sapiens (Human), UniProt P04626, V777L); assay: ErbB enzyme assay (CisBio HTRF-KinEASE-TK), ErbB2 V777L; assay type: biochemical
Procedure, shortened: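 HTRF KinEASE-TK tyrosine-kinase read-out of substrate phosphorylation after a final 1 h at ambient temperature, from the 655/620 nm emission ratio.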

EGFR WT = EGFR WT (Homo sapiens (Human), UniProt P00533); assay: ErbB enzyme assay (CisBio HTRF-KinEASE-TK), EGFR WT; assay type: biochemical; details: ATP at Km (25 μM), 1 h incubation
EGFR WT, sequence (P00533 25-1210): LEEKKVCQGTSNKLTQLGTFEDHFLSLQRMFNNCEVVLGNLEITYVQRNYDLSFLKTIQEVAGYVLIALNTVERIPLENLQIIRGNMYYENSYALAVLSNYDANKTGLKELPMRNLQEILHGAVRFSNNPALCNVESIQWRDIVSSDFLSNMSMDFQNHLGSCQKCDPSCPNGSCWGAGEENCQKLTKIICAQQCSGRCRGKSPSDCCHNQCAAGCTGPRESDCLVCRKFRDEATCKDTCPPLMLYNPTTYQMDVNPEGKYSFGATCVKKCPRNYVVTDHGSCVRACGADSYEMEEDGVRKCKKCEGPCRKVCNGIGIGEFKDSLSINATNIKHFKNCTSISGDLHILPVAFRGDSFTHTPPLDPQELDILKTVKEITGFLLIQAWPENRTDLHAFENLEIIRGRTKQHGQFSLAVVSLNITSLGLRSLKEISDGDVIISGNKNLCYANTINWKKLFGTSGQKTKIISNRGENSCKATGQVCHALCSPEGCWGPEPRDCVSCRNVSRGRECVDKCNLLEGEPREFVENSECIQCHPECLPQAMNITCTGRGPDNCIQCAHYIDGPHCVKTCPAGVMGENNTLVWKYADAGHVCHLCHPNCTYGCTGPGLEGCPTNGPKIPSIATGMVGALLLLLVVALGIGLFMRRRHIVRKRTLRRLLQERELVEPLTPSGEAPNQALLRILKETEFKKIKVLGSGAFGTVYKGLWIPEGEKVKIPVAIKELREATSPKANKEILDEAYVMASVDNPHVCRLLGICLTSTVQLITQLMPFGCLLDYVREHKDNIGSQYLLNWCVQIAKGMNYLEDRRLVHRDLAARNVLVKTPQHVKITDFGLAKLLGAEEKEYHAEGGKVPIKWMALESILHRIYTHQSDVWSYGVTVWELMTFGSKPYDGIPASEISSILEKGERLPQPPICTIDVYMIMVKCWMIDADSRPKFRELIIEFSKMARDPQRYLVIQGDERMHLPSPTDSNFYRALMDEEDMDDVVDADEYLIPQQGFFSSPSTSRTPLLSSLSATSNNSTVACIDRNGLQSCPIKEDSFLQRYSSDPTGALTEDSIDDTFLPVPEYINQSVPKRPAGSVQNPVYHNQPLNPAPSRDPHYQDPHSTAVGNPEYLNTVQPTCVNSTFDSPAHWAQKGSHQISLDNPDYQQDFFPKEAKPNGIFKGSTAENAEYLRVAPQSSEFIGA
Procedure, shortened: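 Three-fold DMSO serial dilutions were added to kinase reactions and incubated 1 h at room temperature. Quench used 62.5 nM Sa-XL665 plus 0.25×TK-Ab-Cryptate in detection buffer, followed by another 1 h. Substrate phosphorylation was then measured by dual-wavelength HTRF.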

ErbB2 V777L, sequence (P04626 23-1255 V777L): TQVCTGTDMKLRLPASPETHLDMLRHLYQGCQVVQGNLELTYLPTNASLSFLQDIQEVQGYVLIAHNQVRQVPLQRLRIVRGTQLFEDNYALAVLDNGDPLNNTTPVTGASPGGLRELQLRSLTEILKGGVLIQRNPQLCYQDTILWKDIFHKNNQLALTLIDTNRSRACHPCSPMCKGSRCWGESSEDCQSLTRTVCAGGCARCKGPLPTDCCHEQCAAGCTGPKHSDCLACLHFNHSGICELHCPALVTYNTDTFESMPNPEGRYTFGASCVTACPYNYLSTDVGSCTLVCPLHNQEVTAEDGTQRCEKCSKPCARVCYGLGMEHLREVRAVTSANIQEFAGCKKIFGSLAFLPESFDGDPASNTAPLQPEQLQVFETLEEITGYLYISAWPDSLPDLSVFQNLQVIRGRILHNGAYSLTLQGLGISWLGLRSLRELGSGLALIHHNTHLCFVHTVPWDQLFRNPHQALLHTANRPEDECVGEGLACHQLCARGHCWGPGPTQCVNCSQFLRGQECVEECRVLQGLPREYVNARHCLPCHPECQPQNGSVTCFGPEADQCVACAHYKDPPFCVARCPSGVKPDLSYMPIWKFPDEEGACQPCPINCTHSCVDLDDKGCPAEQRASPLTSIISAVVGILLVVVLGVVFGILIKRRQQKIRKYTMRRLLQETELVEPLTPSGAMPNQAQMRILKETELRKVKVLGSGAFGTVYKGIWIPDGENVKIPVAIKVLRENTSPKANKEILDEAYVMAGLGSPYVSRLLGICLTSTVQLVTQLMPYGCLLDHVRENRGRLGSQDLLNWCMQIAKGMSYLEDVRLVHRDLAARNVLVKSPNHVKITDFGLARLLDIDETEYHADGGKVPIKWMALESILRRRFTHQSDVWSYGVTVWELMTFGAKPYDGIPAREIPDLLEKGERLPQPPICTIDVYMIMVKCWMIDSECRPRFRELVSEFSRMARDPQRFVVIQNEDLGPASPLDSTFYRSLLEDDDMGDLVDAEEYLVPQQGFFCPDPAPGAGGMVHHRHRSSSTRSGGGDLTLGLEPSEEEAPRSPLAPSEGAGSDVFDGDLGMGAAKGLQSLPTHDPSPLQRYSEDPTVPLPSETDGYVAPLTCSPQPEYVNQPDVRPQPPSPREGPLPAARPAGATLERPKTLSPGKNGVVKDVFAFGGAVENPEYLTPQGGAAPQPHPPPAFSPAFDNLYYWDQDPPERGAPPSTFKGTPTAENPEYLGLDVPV

Row | SMILES | IC50 (ErbB2 V777L) | IC50 (EGFR WT) | IC50 (ErbB2 V777L; ErbB2 V777L enzyme, ATP at Km (110 μM), 1 h incubation)
1 | C=CC(=O)N1CCN(c2ncc3ncnc(Nc4ccc(Oc5ccc6c(c5)nnn6C)c(C)c4)c3c2F)CC1 [Compound 102, 1-(4-(5-fluoro-4-((3-methyl-4-((1-methyl-1H-benzo[d][1,2,3]triazol-5-yl)oxy)phenyl)amino)pyrido[3,4-d]pyrimidin-6-yl)piperazin-1-yl)prop-2-en-1-one] | 100 to 500 nM | 500 to 1000 nM | 
2 | C=CC(=O)N1CC2C(C1)N2c1ncc2ncnc(Nc3ccc(Oc4ccc5c(c4)nnn5C)c(C)c3)c2n1 (stereo not shown) [Compound 242, 1-(6-(8-((3-methyl-4-((1-methyl-1H-benzo[d][1,2,3]triazol-5-yl)oxy)phenyl)amino)pyrimido[5,4-d]pyrimidin-2-yl)-3,6-diazabicyclo[3.1.0]hexan-3-yl)prop-2-en-1-one] | 500 to 1000 nM | 100 to 500 nM | 
3 | C=CC(=O)N(C)[C@H]1CCCN(c2ncc3ncnc(Nc4ccc(Oc5ccc6c(c5)nnn6C)c(C)c4)c3n2)C1 [Compound 127, (S)-N-methyl-N-(1-(8-((3-methyl-4-((1-methyl-1H-benzo[d][1,2,3]triazol-5-yl)oxy)phenyl)amino)pyrimido[5,4-d]pyrimidin-2-y1)piperidin-3-yl)acrylamide] | 100 to 500 nM | 500 to 1000 nM | 
4 | C=CC(=O)NC1CCN(c2ccc3ncnc(Nc4ccc(Oc5ccc6c(c5)nnn6C)c(C)c4F)c3n2)CC1 [Compound 272, N-(1-(4-((2-fluoro-3-methyl-4-((1-methyl-1H-benzo[d][1,2,3]triazol-5-yl)oxy)phenyl)amino)pyrido[3,2-d]pyrimidin-6-yl)piperidin-4-yl)acrylamide] | 100 to 500 nM | 100 to 500 nM | 
5 | C=CC(=O)N(C)C1CC2(C1)CN(c1ncc3ncnc(Nc4ccc(Oc5ccc6c(c5)nnn6C)c(C)c4)c3n1)C2 [Compound 232, N-methyl-N-(2-(8-((3-methyl-4-((1-methyl-H-benzo[d][1,2,3]triazol-5-yl)oxy)phenyl)amino)pyrimido[5,4-d]pyrimidin-2-yl)-2-azaspiro[3.3]heptan-6-yl)acrylamide] | 500 to 1000 nM | ≥ 1000 nM | 
6 | C=CC(=O)N1CCN(c2ccc3ncnc(Nc4cc(C)c(Oc5ccc6c(c5)nnn6C)cc4OC)c3n2)C[C@H]1C [Compound 316, (R)-1-(4-(4-((2-methoxy-5-methyl-4-((1-methyl-1H-benzo[d][1,2,3]triazol-5-yl)oxy)phenyl)amino)pyrido[3,2-d]pyrimidin-6-y1)-2-methylpiperazin-1-yl)prop-2-en-1-one] |  | 100 to 500 nM | 50 to 100 nM
7 | C=CC(=O)N1C2CCC1CN(c1ncc3ncnc(Nc4ccc(Oc5cnc6c(c5)ncn6C)c(C)c4)c3n1)C2 [Compound 134, 1-(3-(8-((3-methyl-4-((3-methyl-3H-imidazo[4,5-b]pyridin-6-yl)oxy)phenyl)amino)pyrimido[5,4-d]pyrimidin-2-yl)-3,8-diazabicyclo[3.2.1]octan-8-yl)prop-2-en-1-one] | 50 to 100 nM | 100 to 500 nM | 
8 | C=CC(=O)N1CCC2(CCN(c3ccc4ncnc(Nc5ccc(Oc6ccc7c(c6)nnn7C)c(C)c5)c4n3)C2)C1 (stereo not shown) [Compound 311, 1-(7-(4-((3-methyl-4-((1-methyl-1H-benzo[d][1,2,3]triazol-5-yl)oxy)phenyl)amino)pyrido[3,2-d]pyrimidin-6-yl)-2,7-diazaspiro[4.4]nonan-2-yl)prop-2-en-1-one] | 500 to 1000 nM | ≥ 1000 nM | 
9 | C/C=C/C(=O)N1CCN(c2ncc3ncnc(Nc4ccc(Oc5ccc6c(c5)nnn6C)c(C)c4)c3n2)CC1 [Compound 34, (E)-1-(4-(8-((3-methyl-4-((1-methyl-1H-benzo[d][1,2,3]triazol-5-yl)oxy)phenyl)amino)pyrimido [5,4-d]pyrimidin-2-yl)piperazin-1-yl)but-2-en-1-one] | 100 to 500 nM | ≥ 1000 nM | 
10 | C=CC(=O)N1CCN(c2ccc3ncnc(Nc4ccc(Oc5cc(F)c6c(c5)nnn6C)c(C)c4)c3n2)C[C@@H]1C1CC1 [Compound 290, (S)-1-(2-cyclopropyl-4-(4-((4-((7-fluoro-1-methyl-1H-benzo[d][1,2,3]triazol-5-yl)oxy)-3-methylphenyl)amino)pyrido[3,2-d]pyrimidin-6-yl)piperazin-1-yl)prop-2-en-1-one] | 100 to 500 nM | 500 to 1000 nM | 
11 | C=CC(=O)N1CCN(c2ccc3ncnc(Nc4cc(F)c(Oc5ccc6c(c5)nnn6C)c(C)c4F)c3n2)CC1(C)C [Compound 327, 1-(4-(4-((2,5-difluoro-3-methyl-4-((1-methyl-1H-benzo[d][1,2,3]triazol-5-yl)oxy)phenyl)amino)pyrido[3,2-d]pyrimidin-6-yl)-2,2-dimethylpiperazin-1-yl)prop-2-en-1-one] | 100 to 500 nM | 100 to 500 nM | 
12 | C=CC(=O)N1CCN(c2ncc3ncnc(Nc4ccc(Oc5ccc6c(c5)nnn6C)c(C)c4)c3n2)[C@@H]2CC[C@H]21 [Compound 189, 1-((1R,6R)-5-(8-((3-methyl-4-((1-methyl-1H-benzo[d][1,2,3]triazol-5-yl)oxy)phenyl)amino)pyrimido[5,4-d]pyrimidin-2-y1)-2,5-diazabicyclo[4.2.0]octan-2-yl)prop-2-en-1-one] | 100 to 500 nM | 500 to 1000 nM | 
13 | C=CC(=O)N1CCN(c2ncc3ncnc(Nc4ccc(Oc5ccc6c(c5)nnn6C)c(C)c4)c3n2)[C@@H](C)C1 [Compound 18, (S)-1-(3-methyl-4-(8-((3-methyl-4-((1-methyl-1H-benzo[d][1,2,3]triazol-5-yl)oxy)phenyl)amino)pyrimido[5,4-d]pyrimidin-2-yl)piperazin-1-yl)prop-2-en-1-one 2,2,2-trifluoroacetate] | 50 to 100 nM | 100 to 500 nM | 
14 | C=CC(=O)N[C@@H]1C[C@@H](F)CN(c2ccc3ncnc(Nc4ccc(Oc5ccc6c(c5)nnn6C)c(C)c4F)c3n2)C1 [Compound 295, N-((3R,5R)-5-fluoro-1-(4-((2-fluoro-3-methyl-4-((1-methyl-1H-benzo[d][1,2,3]triazol-5-yl)oxy)phenyl)amino)pyrido[3,2-d]pyrimidin-6-yl)piperidin-3-yl)acrylamide] | 100 to 500 nM | 100 to 500 nM | 

Next, values leading:

Row | IC50 (ErbB2 V777L) | IC50 (EGFR WT) | IC50 (ErbB2 V777L; ErbB2 V777L enzyme, ATP at Km (110 μM), 1 h incubation) | SMILES
15 | 50 to 100 nM | 100 to 500 nM |  | C=CC(=O)N(C)[C@H]1C[C@@H](Oc2ncc3ncnc(Nc4ccc(Oc5cc(F)c6c(c5)ncn6C)c(C)c4)c3n2)C1 [Compound 387, N-((1s,3s)-3-((8-((4-((7-fluoro-1-methyl-1H-benzo[d]imidazol-5-yl)oxy)-3-methylphenyl)amino)pyrimido[5,4-d]pyrimidin-2-yl)oxy)cyclobutyl)-N-methylacrylamide]
16 | 50 to 100 nM | < 50 nM |  | C=CC(=O)N[C@@H]1C[C@H](F)CN(c2ccc3ncnc(Nc4ccc(Oc5ccc6c(c5)nnn6C)c(C)c4F)c3n2)C1 [Compound 298, N-((3R,5S)-5-fluoro-1-(4-((2-fluoro-3-methyl-4-((1-methyl-1H-benzo[d][1,2,3]triazol-5-yl)oxy)phenyl)amino)pyrido[3,2-d]pyrimidin-6-yl)piperidin-3-yl)acrylamide]
17 | 50 to 100 nM | 100 to 500 nM |  | C=CC(=O)N1CCN(c2ccc3ncnc(Nc4ccc(Oc5ccc6c(c5)nnn6C)c(C)c4F)c3n2)C[C@H]1C [Compound 246, (R)-1-(4-(4-((2-fluoro-3-methyl-4-((1-methyl-1H-benzo[d][1,2,3]triazol-5-yl)oxy)phenyl)amino)pyrido[3,2-d]pyrimidin-6-yl)-2-methylpiperazin-1-yl)prop-2-en-1-one]
18 | 50 to 100 nM | 50 to 100 nM |  | C=C(F)C(=O)N1CC(F)(F)C12CN(c1ncc3ncnc(Nc4ccc(Oc5ccc6c(c5)nnn6C)c(C)c4)c3n1)C2 [Compound 209, 1-(3,3-difluoro-6-(8-((3-methyl-4-((1-methyl-1H-benzo[d][1,2,3]triazol-5-yl)oxy)phenyl)amino)pyrimido [5,4-d]pyrimidin-2-yl)-1,6-diazaspiro[3.3]heptan-1-yl)-2-fluoroprop-2-en-1-one]
19 | 100 to 500 nM | 100 to 500 nM |  | C=CC(=O)N1CCN(c2ccc3ncnc(Nc4cc(C)c(Oc5ccc6c(c5)nnn6C)cc4OC(F)(F)F)c3n2)CC1 [Compound 312, 1-(4-(4-((5-methyl-4-((1-methyl-1H-benzo[d][1,2,3]triazol-5-yl)oxy)-2-(trifluoromethoxy)phenyl)amino)py-rido[3,2-d]pyrimidin-6-yl)piperazin-1-yl)prop-2-en-1-one]
20 | 100 to 500 nM | 100 to 500 nM |  | C=CC(=O)N(C)C1CN(c2ncc3ncnc(Nc4ccc(Oc5ccc6c(c5)nnn6C)c(C)c4F)c3n2)C1 [Compound 28, N-(1-(8-((2-fluoro-3-methyl-4-((1-methyl-1H-benzo[d][1,2,3]triazol-5-yl)oxy)phenyl)amino)pyrimido [5,4-d]pyrimidin-2-yl)azetidin-3-yl)-N-methylacrylamide]
21 | 100 to 500 nM | 100 to 500 nM |  | C=CC(=O)NC1CC=C(c2ccc3ncnc(Nc4ccc(Oc5ccc6c(c5)nnn6C)c(C)c4)c3n2)CC1 (stereo not shown) [Compound 412, N-(4-(4-((3-methyl-4-((1-methyl-1H-benzo[d][1,2,3]triazol-5-yl)oxy)phenyl)amino)pyrido[3,2-d]pyrimidin-6-yl)cyclohex-3-en-1-yl)acrylamide]
22 | 50 to 100 nM | 100 to 500 nM |  | C=CC(=O)N1CCN(c2ncc3ncnc(Nc4cc(C)c(Oc5ccc6c(c5)ncn6C(F)F)cc4OC)c3n2)CC1 [Compound 37, 1-(4-(8-((4-((1-(difluoromethyl)-1H-benzo[d]imidazol-5-y1)oxy)-2-methoxy-5-methylphenyl)amino)pyrimido[5,4-d]pyrimidin-2-yl)piperazin-1-yl)prop-2-en-1-one 2,2,2-trifluoroacetate]
23 | 100 to 500 nM | 100 to 500 nM |  | C=CC(=O)N1CCN(c2ncc3ncnc(Nc4ccc(Oc5cc6nnn(C)c6cn5)c(C)c4)c3n2)CC1 [Compound 132, 1-(4-(8-((3-methyl-4-((3-methyl-3H-[1,2,3]triazolo[4,5-c]pyridin-6-yl)oxy)phenyl)amino)pyrimido[5,4-d]pyrimidin-2-yl)piperazin-1-yl)prop-2-en-1-one]
